Results on two compounds are retold here after patent US20030125387A1 (priority 2000, published 2003).

In brackets after ≈: the same amount, converted by molar mass. Read-outs that look alike come from different tables or passages of the source. Where only a bound is given, the exact number is not on record here.

Data set [1] in a line: Studies using 14C labelled benzyl alcohol: dissipation from injection site and removal from body. In kind it is in vivo.
For data set [2], the system named is uterotrophic action of oestradiol. The settings on record: mice; cited from earlier work.
Data set [3] can be described thus: Solubility of fulvestrant in oil based formulations with and without alcohols (Table 4). It counts as physicochemical. The settings on record: 25 °C, oil or lipid.
The conditions of data set [4]: in vivo; cited from earlier work.
A short description of data set [5]: Aqueous solubility of fulvestrant, estimate from a water/solvent mixture. The settings on record: estimate from a water/solvent mixture solute. In kind it is physicochemical.
In data set [6] the test system is hypothalamic ER. To be noted: in vivo; cited from earlier work.
The subject of data set [7] is uterus. To be noted: intact adult rats, cited from earlier work.
Data set [8] can be described thus: Effect of benzyl benzoate on fulvestrant solubility in castor oil at 25°C (Table 3). It counts as physicochemical.
Data set [9] concerns human breast cancer cells. To be noted: human breast cancer cells in vitro; cited from earlier work.
A short description of data set [10]: Solubility of fulvestrant in different solvents at 25° C. (Table 2). It counts as physicochemical.
Data set [11] relates to uterotrophic action of oestradiol. The settings on record: rats; cited from earlier work.
Data set [12] shares this test system. To be noted: monkeys; cited from earlier work.

For `OCc1ccccc1` [benzyl alcohol], in data set [1], the “dissipation from the injection site” value is recorded as “dissipates rapidly” and the “time to removal from the body after administration” value was not above 24 h.

For `C[C@]12CC[C@@H]3c4ccc(O)cc4C[C@@H](CCCCCCCCC[S+]([O-])CCCC(F)(F)C(F)(F)F)[C@H]3[C@@H]1CC[C@@H]2O` (stereo partly drawn) [fulvestrant, 7α-[9-(4,4,5,5,5-Pentafluoropentylsulphinyl)nonyl]oestra-1,3-5(10)-triene-3,17β-diol], the “block of uterotrophic action of oestradiol” value in [2], in data set [11] and in [12] was “blocks completely” each time. In addition, the solubility was 70.1 mg/mL (≈ 116 mM) in data set [3]; 0.7 mg/mL (≈ 1.15 mM) in [3] (Fulvestrant Solubility, Vehicle minus alcohols, Sesame seed oil based, alcohols removed); 4.4 mg/mL (≈ 7.25 mM) in data set [3] (Fulvestrant Solubility, Vehicle minus alcohols, Sesame seed/Castor oil (1:1) based, alcohols removed, 25° C.); 40.2 mg/mL (≈ 66.3 mM) in data set [3] (Arachis oil based oil formulation, complete vehicle, Fulvestrant Solubility, Arachis oil based, ethanol [96%] (10%), benzyl alcohol (10%), benzyl benzoate (15%), oil to volume); less than 0.2 mg/mL in [3] (Arachis oil based oil formulation, vehicle minus alcohols, Fulvestrant Solubility, Arachis oil based, alcohols removed); 81.2 mg/mL (≈ 134 mM) in [3] (Castor oil based oil formulation, complete vehicle, Fulvestrant Solubility, Castor oil based, ethanol [96%] (10%), benzyl alcohol (10%), benzyl benzoate (15%), oil to volume). For the same compound, the solubility in data set [3] (Castor oil based oil formulation, vehicle minus alcohols, Fulvestrant Solubility, Castor oil based, alcohols removed) is 12.6 mg/mL (≈ 20.8 mM); in data set [3] (Miglyol 812-N based oil formulation, complete vehicle, Fulvestrant Solubility, Miglyol 812-N based, ethanol [96%] (10%), benzyl alcohol (10%), benzyl benzoate (15%), oil to volume), 86.8 mg/mL (≈ 143 mM); in [3] (Miglyol 812-N based oil formulation, vehicle minus alcohols, Fulvestrant Solubility, Miglyol 812-N based, alcohols removed), 1.7 mg/mL (≈ 2.8 mM); in [3] (Sesame seed oil based oil formulation, complete vehicle, Fulvestrant Solubility, Sesame seed oil based, ethanol [96%] (10%), benzyl alcohol (10%), benzyl benzoate (15%), oil to volume), 45.7 mg/mL (≈ 75.3 mM); in data set [10] (solvent Arachis oil, 25° C.) it was 0.45 mgml^−1; in data set [10] (solvent Benzyl Alcohol, 25° C.), more than 200 mgml^−1. Also, the solubility in [10] (solvent Benzyl benzoate, 25° C.) is listed as 6.15 mgml^−1; in data set [10] (solvent Castor oil, 25° C.), 20 mgml^−1; in data set [10] (solvent Ethanol, 25° C.), more than 200 mgml^−1; in data set [10] (solvent Ethyl oleate, 25° C.) it was 1.25 mgml^−1; in data set [10] (solvent Isopropyl myristate, 25° C.) it was 0.80 mgml^−1; in [10] (solvent Miglyol 810, 25° C.), 3.06 mgml^−1. In addition, the solubility came out at 2.72 mgml^−1 in data set [10] (solvent Miglyol 812, 25° C.); 0.58 mgml^−1 in [10] (solvent Sesame oil, 25° C.); 3.79 mgml^−1 in data set [10] (solvent Span 85 (surfactant), 25° C.); 0.001 mg/mL (≈ 0.00165 mM) in data set [10] (solvent Water, 25° C., read-out: SOLUBILITY). The “crossing of the blood-brain barrier” value in data set [4] is reported as “does not cross the blood-brain barrier”. Further, the aqueous solubility result in data set [5] is on record as “around 10 ngml^−1”. The “block of hypothalamic ER” value in data set [6] was “does not block”. In addition, the “effect on bone density and gonadotrophin secretion” value in data set [7] (at the dose achieving maximum regression of the uterus) was “does not adversely affect bone density or lead to increased gonadotrophin secretion”. Moreover, in data set [7], the “regression of the uterus” value is “maximum regression of the uterus”. The “Fulvestrant Solubility” value is given as 36 mgml^−1 in [8] (% w/v: ethanol (96%) 5, benzyl alcohol 5, benzyl benzoate 15, castor oil to 100); 27 mgml^−1 in data set [8] (% w/v: ethanol (96%) 5, benzyl alcohol 5, no benzyl benzoate, castor oil to 100); 54 mgml^−1 in [8] (% w/v: ethanol (96%) 10, benzyl alcohol 5, benzyl benzoate 15, castor oil to 100); 46 mgml^−1 in [8] (% w/v: ethanol (96%) 10, benzyl alcohol 5, no benzyl benzoate, castor oil to 100); 65 mgml^−1 in data set [8] (% w/v: ethanol (96%) 10, benzyl alcohol 10, benzyl benzoate 15, castor oil to 100); 45 mgml^−1 in data set [8] (% w/v: ethanol (96%) 10, benzyl alcohol 10, no benzyl benzoate, castor oil to 100). The “Fulvestrant Solubility” value is given as 102 mgml^−1 in data set [8] (% w/v: ethanol (96%) 15, benzyl alcohol 15, benzyl benzoate 15, castor oil to 100) and 76 mgml^−1 in data set [8] (% w/v: ethanol (96%) 15, benzyl alcohol 15, no benzyl benzoate, castor oil to 100). In addition, the “block of growth stimulatory action of oestradiol” value in data set [9] is “completely blocks”. In data set [9], the “potency and effectiveness compared with tamoxifen” value was “more potent and more effective than tamoxifen”.
